Measured values reported in PubChem BioAssay (NCI).
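Where inhibition never reached the appropriate level, the endpoint shown equals the highest concentration tested. Otherwise, values were interpolated linearly from a five-concentration, 48-hour dose response in 96-well plates. At the GI50, growth is halved. The concentration for full growth arrest is given as TGI.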

Legend:
Experiment in all cases: NCI tumour cell line growth inhibition, 48 h
[1] = tested on: 786-0 renal
[2] = tested on: A498 renal
[3] = tested on: A549 NSCLC
[4] = tested on: ACHN renal
[5] = tested on: BT-549 breast
[6] = tested on: CAKI-1 renal
[7] = tested on: CCRF-CEM leukemia
[8] = tested on: COLO 205 colon
[9] = tested on: DU-145 prostate
[10] = tested on: HCC-2998 colon
[11] = tested on: HCT-116 colon
[12] = tested on: HCT-15 colon
[13] = tested on: HL-60(TB) leukemia
[14] = tested on: HOP-62 NSCLC
[15] = tested on: HS 578T breast
[16] = tested on: HT29 colon
[17] = tested on: IGROV1 ovarian
[18] = tested on: K-562 leukemia
[19] = tested on: KM12 colon
[20] = tested on: M14 melanoma
[21] = tested on: MALME-3M melanoma
[22] = tested on: MCF7 breast
[23] = tested on: MDA-MB-231 breast
[24] = tested on: MDA-MB-435
[25] = tested on: MOLT-4 leukemia
[26] = tested on: NCI-H226 lung
[27] = tested on: NCI-H23 lung
[28] = tested on: NCI-H460 lung
[29] = tested on: NCI-H522 lung
[30] = tested on: NCI/ADR-RES ovarian
[31] = tested on: OVCAR-3 ovarian
[32] = tested on: OVCAR-4 ovarian
[33] = tested on: OVCAR-5 ovarian
[34] = tested on: OVCAR-8 ovarian
[35] = tested on: PC-3 prostate
[36] = tested on: RPMI-8226 leukemia
[37] = tested on: RXF 393 renal
[38] = tested on: SF-268 CNS
[39] = tested on: SF-295 CNS
[40] = tested on: SF-539 CNS
[41] = tested on: SK-MEL-28 melanoma
[42] = tested on: SK-MEL-5 melanoma
[43] = tested on: SK-OV-3 ovarian
[44] = tested on: SN12C renal
[45] = tested on: SNB-19 CNS
[46] = tested on: SNB-75 CNS
[47] = tested on: SR leukemia
[48] = tested on: SW-620 colon
[49] = tested on: T-47D breast
[50] = tested on: TK-10 renal
[51] = tested on: UACC-257 melanoma
[52] = tested on: UACC-62 melanoma
[53] = tested on: UO-31 renal
[54] = tested on: EKVX NSCLC
[55] = tested on: HOP-92 NSCLC
[56] = tested on: LOX IMVI melanoma
[57] = tested on: SK-MEL-2 melanoma
[58] = tested on: U251 CNS

COc1cc(/C=C/C(=O)c2ccccc2)cc(OC)c1OC
GI50 [1]: 2.74 µM | TGI [1]: 7.36 µM | GI50 [2]: 12.3 µM | TGI [2]: 25.3 µM | GI50 [3]: 6.14 µM | TGI [3]: 23 µM | GI50 [4]: 2.31 µM | TGI [4]: 6.29 µM | GI50 [5]: 3.79 µM | TGI [5]: 11.2 µM | GI50 [6]: 5.61 µM | TGI [6]: 19.9 µM | GI50 [7]: 1.49 µM | TGI [7]: 5.89 µM | GI50 [8]: 9.32 µM | TGI [8]: 21.7 µM | GI50 [9]: 4.92 µM | TGI [9]: 16.4 µM | GI50 [10]: 12.3 µM | TGI [10]: 25.6 µM | GI50 [11]: 1.98 µM | TGI [11]: 4.07 µM | GI50 [12]: 1.99 µM | TGI [12]: 5.26 µM | GI50 [13]: 2.56 µM | TGI [13]: 6.82 µM | GI50 [14]: 6.06 µM | TGI [14]: 19.7 µM | GI50 [15]: 4.62 µM | TGI [15]: 39.8 µM | GI50 [16]: 2.47 µM | TGI [16]: 5.37 µM | GI50 [17]: 4.04 µM | TGI [17]: 14.2 µM | GI50 [18]: 3.23 µM | TGI [18]: 10.7 µM | GI50 [19]: 3.22 µM | TGI [19]: 10.2 µM | GI50 [20]: 3.27 µM | TGI [20]: 11.6 µM | GI50 [21]: 4.83 µM | TGI [21]: 19.7 µM | GI50 [22]: 0.398 µM | TGI [22]: 10.3 µM | GI50 [23]: 5.61 µM | TGI [23]: 20 µM | GI50 [24]: 3.06 µM | TGI [24]: 11.3 µM | GI50 [25]: 2.94 µM | TGI [25]: 8.13 µM | GI50 [26]: 2.96 µM | TGI [26]: 14.3 µM | GI50 [27]: 7.45 µM | TGI [27]: 23.3 µM | GI50 [28]: 2.25 µM | TGI [28]: 5.91 µM | GI50 [29]: 1.95 µM | TGI [29]: 3.88 µM | GI50 [30]: 3.38 µM | TGI [30]: 15 µM | GI50 [31]: 4.02 µM | TGI [31]: 12.9 µM | GI50 [32]: 4.53 µM | TGI [32]: 19.4 µM | GI50 [33]: 3.95 µM | TGI [33]: 16.6 µM | GI50 [34]: 2.95 µM | TGI [34]: 11.8 µM | GI50 [35]: 4.54 µM | TGI [35]: 17.9 µM | GI50 [36]: 2.38 µM | TGI [36]: 6.29 µM | GI50 [37]: 3.11 µM | TGI [37]: 11.5 µM | GI50 [38]: 4.2 µM | TGI [38]: 17.5 µM | GI50 [39]: 10.3 µM | TGI [39]: 24.2 µM | GI50 [40]: 2.96 µM | TGI [40]: 10.1 µM | GI50 [41]: 2.29 µM | TGI [41]: 5.75 µM | GI50 [42]: 4.12 µM | TGI [42]: 15 µM | GI50 [43]: 4.42 µM | TGI [43]: 13.8 µM | GI50 [44]: 2.94 µM | TGI [44]: 10.9 µM | GI50 [45]: 12.8 µM | TGI [45]: 26.8 µM | GI50 [46]: 10.2 µM | TGI [46]: 22.2 µM | GI50 [47]: 2.33 µM | TGI [47]: 6.68 µM | GI50 [48]: 2.48 µM | TGI [48]: 7.2 µM | GI50 [49]: 3.93 µM | TGI [49]: 20.9 µM | GI50 [50]: 10.2 µM | TGI [50]: 22.2 µM | GI50 [51]: 3.7 µM | TGI [51]: 15 µM | GI50 [52]: 2.23 µM | TGI [52]: 5.7 µM | GI50 [53]: 1.86 µM | TGI [53]: 3.78 µM

Cc1cc(Cl)ccc1OCc1nn2c(CCCCc3nnc4sc(COc5ccc(Cl)cc5C)nn34)nnc2s1
GI50 [1]: 26.7 µM | TGI [1]: 55.5 µM | GI50 [2]: 1.67 µM | TGI [2]: 8.21 µM | GI50 [3]: 27 µM | TGI [3]: > 100 µM | GI50 [4]: 34.1 µM | TGI [4]: > 100 µM | GI50 [5]: 11.6 µM | TGI [5]: 51.8 µM | GI50 [6]: 4.52 µM | TGI [6]: > 55.3 µM | GI50 [7]: 33.7 µM | TGI [7]: > 61.6 µM | GI50 [8]: 43.5 µM | TGI [8]: > 100 µM | GI50 [9]: 13.9 µM | TGI [9]: > 100 µM | GI50 [54]: 11.3 µM | TGI [54]: > 76.2 µM | GI50 [10]: 30.2 µM | TGI [10]: > 100 µM | GI50 [11]: 32.2 µM | TGI [11]: > 81 µM | GI50 [12]: 47.1 µM | TGI [12]: > 100 µM | GI50 [13]: > 94.2 µM | TGI [13]: > 100 µM | GI50 [14]: 32.2 µM | TGI [14]: 58.5 µM | GI50 [55]: 34.2 µM | TGI [55]: > 68.8 µM | GI50 [15]: 0.544 µM | GI50 [16]: 43.6 µM | TGI [16]: > 100 µM | GI50 [17]: 28.4 µM | TGI [17]: > 100 µM | GI50 [18]: > 73.2 µM | TGI [18]: > 100 µM | GI50 [19]: 17.2 µM | TGI [19]: > 100 µM | GI50 [56]: 28.2 µM | TGI [56]: > 100 µM | GI50 [20]: 45.9 µM | TGI [20]: > 100 µM | GI50 [21]: 29.2 µM | TGI [21]: > 86.1 µM | GI50 [22]: 21.9 µM | TGI [22]: > 73.2 µM | GI50 [23]: 17.7 µM | TGI [23]: > 78.6 µM | GI50 [24]: 7.12 µM | TGI [24]: > 57.8 µM | GI50 [25]: 25.5 µM | TGI [25]: > 100 µM | GI50 [26]: 21.8 µM | TGI [26]: 74.5 µM | GI50 [27]: 29.8 µM | TGI [27]: > 100 µM | GI50 [28]: 24.7 µM | TGI [28]: > 93.6 µM | GI50 [29]: 20.8 µM | TGI [29]: 61.7 µM | GI50 [30]: 23 µM | TGI [30]: 74 µM | GI50 [31]: 7.99 µM | TGI [31]: 72.2 µM | GI50 [32]: 21.2 µM | TGI [32]: > 69.6 µM | GI50 [33]: > 100 µM | TGI [33]: > 100 µM | GI50 [34]: 8.99 µM | TGI [34]: > 83.1 µM | GI50 [35]: 22.4 µM | TGI [35]: > 80.1 µM | GI50 [36]: 18.9 µM | TGI [36]: > 100 µM | GI50 [37]: 18 µM | TGI [37]: 62.8 µM | GI50 [38]: 23 µM | TGI [38]: > 76.7 µM | GI50 [39]: 8.28 µM | TGI [39]: 76.2 µM | TGI [40]: 1.47 µM | GI50 [57]: > 63.4 µM | TGI [57]: > 89.5 µM | GI50 [41]: 52.7 µM | TGI [41]: > 100 µM | GI50 [42]: 1.68 µM | TGI [42]: 9.75 µM | GI50 [43]: 35.4 µM | TGI [43]: 73.1 µM | GI50 [44]: 37.8 µM | TGI [44]: > 100 µM | GI50 [45]: 48.9 µM | TGI [45]: > 80.4 µM | GI50 [46]: 13.8 µM | TGI [46]: 51 µM | GI50 [48]: 3.48 µM | TGI [48]: > 41 µM | GI50 [49]: 14.6 µM | TGI [49]: 57.2 µM | GI50 [50]: 26.2 µM | TGI [50]: 74.2 µM | GI50 [58]: 25.3 µM | TGI [58]: > 74.7 µM | GI50 [51]: 8.41 µM | TGI [51]: > 100 µM | GI50 [52]: 22.6 µM | TGI [52]: > 100 µM | GI50 [53]: 14.5 µM | TGI [53]: > 100 µM
